Patent US20100331330A1, “METHODS AND COMPOSITIONS FOR TREATING ISCHEMIC STROKE” (priority 2006, published 2010)

Experiments:
ICAM mRNA = ICAM mRNA by real time PCR after MCAO; type: in vivo, rat; settings: rosiglitazone 0.1 mg/kg or pioglitazone 1 mg/kg 24 h before and at time of 2 hour MCAO; sacrificed 24 h later
PPARγ-PPRE binding = target: T1, PPARγ-PPRE binding (Rattus norvegicus, UniProt O88275); test: Electrophoretic mobility shift assay of PPARγ DNA (PPRE) binding in brain nuclear extract; type: in vivo; settings: both ipsilateral and contralateral hemispheres, 0.1 mg/kg 24 h before and at time of 2 hour MCAO
T1 construct: from tissue; host or cells: rat brain nuclear extract (ipsilateral and contralateral hemisphere after MCAO)
T1 sequence (O88275 1-505): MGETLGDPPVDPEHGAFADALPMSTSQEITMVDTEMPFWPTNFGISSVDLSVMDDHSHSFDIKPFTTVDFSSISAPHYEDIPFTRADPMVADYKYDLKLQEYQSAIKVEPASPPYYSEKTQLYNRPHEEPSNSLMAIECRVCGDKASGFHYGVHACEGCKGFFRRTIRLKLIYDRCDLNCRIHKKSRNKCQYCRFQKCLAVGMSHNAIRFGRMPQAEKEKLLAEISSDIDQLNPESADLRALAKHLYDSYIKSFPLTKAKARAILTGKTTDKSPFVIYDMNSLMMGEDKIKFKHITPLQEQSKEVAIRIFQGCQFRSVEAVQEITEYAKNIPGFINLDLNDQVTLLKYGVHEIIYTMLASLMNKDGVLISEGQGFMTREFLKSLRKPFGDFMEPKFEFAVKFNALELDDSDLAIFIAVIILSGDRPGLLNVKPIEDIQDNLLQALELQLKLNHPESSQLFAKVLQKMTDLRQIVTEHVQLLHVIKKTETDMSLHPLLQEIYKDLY
T1 sequence (Q05343 1-467 partner): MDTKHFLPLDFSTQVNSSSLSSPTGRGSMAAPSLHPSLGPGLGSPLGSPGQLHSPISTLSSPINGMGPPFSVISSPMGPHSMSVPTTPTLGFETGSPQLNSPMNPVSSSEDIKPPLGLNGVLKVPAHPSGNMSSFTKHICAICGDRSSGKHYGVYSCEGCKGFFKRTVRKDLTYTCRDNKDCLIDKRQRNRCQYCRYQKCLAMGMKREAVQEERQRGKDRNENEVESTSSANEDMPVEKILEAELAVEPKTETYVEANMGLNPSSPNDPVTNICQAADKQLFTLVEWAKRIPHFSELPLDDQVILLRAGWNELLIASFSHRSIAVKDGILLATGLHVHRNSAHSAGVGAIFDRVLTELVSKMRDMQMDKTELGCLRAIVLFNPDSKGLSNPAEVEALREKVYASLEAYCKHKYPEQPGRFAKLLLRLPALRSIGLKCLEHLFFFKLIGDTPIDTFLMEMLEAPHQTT
Method: Eight hours after the onset of MCAO the animals were euthanized by halothane inhalation and the brains quickly removed. Blocks of tissue 4 mm thick encompassing the rostral caudal extension of the infarct and the same area on the contralateral hemisphere were dissected free and snap frozen in liquid nitrogen. Nuclear extraction was performed and protein concentrations were determined using the Bradford method.
Ten micrograms of nuclear extract protein was incubated with 32P-labeled double stranded oligonucleotide (40 fmol) containing the PPAR responsive element sequences in rat acyl CoA oxidase promoter (5′-[…]-3′) (SEQ ID NO: 5). For competition assays, 100 fold radioinert (cold) competitor oligonucleotides were included in the reaction mixture. Interference assays with antibody to PPARγ (2 μg/reaction; SC-7273x, Santa Cruz Biotechnology,) were used to determine specificity of PPARγ-PPRE binding.
Nucleoprotein-oligonucleotide complexes were resolved electrophoretically on a 7% non-denaturing polyacrylamide gel. The gel was autoradiographed and optical density was assessed using Kodak Analysis (EDAS) 290 system.

LPL mRNA = test: Lipoprotein lipase (LPL) mRNA by real time PCR after MCAO; type: in vivo, rat; settings: rosiglitazone 0.1 mg/kg, pioglitazone 1.0 mg/kg; 24 h before and at time of 2 hour MCAO; tissue 24 h later
Excerpt: At the time of sacrifice the animal was placed in an anesthesia chamber and exposed to 5% halothane, 30% oxygen, 65% nitrous oxide until it ceased breathing. The rat was the, processed for either histologic and immunocytochemical analysis or decapitated and the brain immediately dissected for mRNA isolation. Animals used for immunohistochemistry underwent intracardiac perfusion; the thoracic cavity was opened, a blunt needle placed through the left ventricle into the aorta and the right atrium cut. Animals were perfused through the heart, first with 0.1 M phosphate buffer and then with 4% paraformaldehyde (pH 7.4). The brain was removed from the rat and immersion fixed in 4% paraformaldehyde for an additional hour. Tissue was then transferred to 30% sucrose in phosphate buffer in order to cyroprotect it. Brains were mounted in OCT sectioning medium and frozen sections cut at either twenty microns (for infarct volume determination) or ten microns (for immunocytochemistry). Animals used in real time PCR experiments were decapitated after euthanasia and the brain quickly removed.
A 2 mm thick coronal slice of tissue through the area of maximal infarction was quickly homogenized in Trizol (Gibco BRL, Rockville, Md.). […] RNA was isolated using Life Technologies Protocol (Rockville, Md.), and cDNA synthesized from 1.5 μg of total RNA. […]

[1] = Physiologic parameters and cerebral blood perfusion monitoring during MCAO; type: in vivo, rat; settings: during MCAO surgery
Method: MCAO was performed as previously described. […] The rats were then allowed to recover from anesthesia.
Male Wistar rats were anesthetized with halothane. Cerebral blood perfusion was monitored during surgery and reperfusion including the time of occlusion and the time of reperfusion. A small craniotomy was made midway between the corner of the eye and the external auditory canal. A laser Doppler probe (Perimed AB, Järfälla, Sweden) was placed such that its beam passed through the craniotomy and cerebral blood perfusion measured. Once the baseline measurement was obtained, MCAO was performed. Cerebral blood perfusion was monitored at the time of MCAO and at the time of reperfusion. There were no significant differences in cerebral blood flow reductions during MCAO for any of the treatment groups. Following completion of MCAO, animals were allowed to recover and returned to their cages.

hemorrhagic stroke = settings: in vivo; cited from earlier work
PPARγ = target: T2, PPARγ (Homo sapiens, UniProt P37231); settings: cited from earlier work
T2 sequence (P37231 1-505): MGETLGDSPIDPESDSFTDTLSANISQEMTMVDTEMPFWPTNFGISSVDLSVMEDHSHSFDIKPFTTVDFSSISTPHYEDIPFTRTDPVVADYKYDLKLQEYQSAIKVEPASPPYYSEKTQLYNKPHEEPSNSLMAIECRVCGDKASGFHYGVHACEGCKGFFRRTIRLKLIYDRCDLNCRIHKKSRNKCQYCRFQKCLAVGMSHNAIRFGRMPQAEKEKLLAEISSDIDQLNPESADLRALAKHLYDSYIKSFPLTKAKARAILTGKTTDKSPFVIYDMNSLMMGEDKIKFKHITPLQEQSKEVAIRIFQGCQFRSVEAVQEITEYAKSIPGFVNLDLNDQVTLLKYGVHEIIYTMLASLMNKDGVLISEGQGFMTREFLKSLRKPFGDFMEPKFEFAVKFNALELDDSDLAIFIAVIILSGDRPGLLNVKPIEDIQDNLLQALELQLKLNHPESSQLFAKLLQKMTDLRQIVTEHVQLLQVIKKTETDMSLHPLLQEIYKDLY

[2] = system: rats subjected to middle cerebral artery occlusion (MCAO); settings: 90 minute MCAO
Excerpt: Male Wistar rats, 250-350 g, were obtained from Charles River (Wilmington, Mass.). Animals were housed and cared for in the Animal Resource Center and allowed free access to food and water before and after surgery. All procedures were approved by the Institutional Animal Care and Use Committee of Case Western Reserve University.
A 4.0 nylon suture with a flame rounded tip was advanced through the internal carotid artery to occlude the MCA while cerebral blood flow was monitored using laser doppler (Perimed AB, Jarfalla, Sweden). At the time of reperfusion rats were again anesthetized and the suture removed with cerebral blood flow monitoring to ensure reperfusion. Arterial blood pressure, arterial blood gases and temperature were all monitored and controlled during the length of the procedure.
Control animals were injected with 0.1 ml DMSO.
Rats were euthanized by exposure to 5% halothane until breathing ceased. They then underwent intracardiac perfusion first with PBS and then with 4% paraformaldehyde. Brains were isolated and immersion fixed in 4% paraformaldehyde overnight. Tissue was cryoprotected in 30% sucrose in PBS. Twenty micron frozen sections were collected every […] beginning at the level of the forceps minor corpus callosum and extending through the hippocampus. Sections were stained with Thionin and the area of infarction measured using Bioquant computer software (R&M Biometrics, Nashville, Tenn.) by subtracting the uninfarcted tissue in the ischemic hemisphere from the volume of the contralateral hemisphere. This method corrects for post-ischemic edema.
Male Wistar rats, 250-350 g, were obtained from Charles River (Wilmington, Mass.). […] Animals were housed and cared for in the Animal Resource Center and allowed free access to food and water before and after surgery. […] The tail artery was exposed and cannulated to measure mean arterial blood pressure and to obtain blood for blood gas measurements during surgery. Animals in which normal temperature, blood pressure and gases could not be maintained were excluded from the study. MCAO was performed as previously described. Briefly, the bifurcation of the common carotid artery was exposed. The external carotid artery was isolated and a suture placed 0.5 cm from the bifurcation. Following electrocoagulation distal to the suture the external carotid was cut between the suture and the electrocoagulated segment. A suture was applied to the common carotid artery such that it could be removed later. A loop of suture was then placed under the internal carotid artery and the artery elevated to transiently occlude blood flow. A small nick was made in the wall of the external carotid artery. Through this nick a 22 mm length of 4.0 Ethicon suture, its tip rounded by heating near a flame, was gently threaded from the external to the internal carotid artery lumen to a distance of 18 mm from the bifurcation of the carotid. The thread was held in place with a suture around the stump of the external carotid artery and the suture around the internal carotid artery released. The catheter was removed from the tail artery and both incisions were closed. The rats were then allowed to recover from anesthesia. […] The neck incision was reopened and the 4.0 Ethicon suture removed. The suture that held it in place was tightened and the suture around the common carotid artery was removed. After confirmation of reperfusion by visual inspection, the incision was closed and the animal allowed to recover.
Twenty micron frozen sections of paraformaldehyde fixed brains were collected every 1000 μm beginning at the level of the forceps minor corpus callosum and extending through the hippocampus. The slides were stained with Thionin. The sections were then trans-illuminated and the image transmitted to a computer screen.

rat cerebellum = settings: injection; bacterial lipopolysaccharide and interferon-γ; cited from earlier work
[3] = system: rodent models of cerebral ischemia; settings: in vivo; cited from earlier work
[4] = system: cultured cerebellar granule neurons; settings: cited from earlier work

In the case of `CN(CCOc1ccc(CC2SC(=O)NC2=O)cc1)c1ccccn1` (centres unmarked) [rosiglitazone, 5-[4-[2-(N-methyl-N-(2-pyridyl)amino]ethoxy]benzyl]thiazolidine-2,4-dione], the “ICAM mRNA compared with vehicle treated rats” value (ICAM mRNA) is reported as “significant reduction in ICAM mRNA”, the “PPARγ-PPRE binding (densitometry), in words” value (PPARγ-PPRE binding) is reported as “significantly increase PPARγ-PPRE binding” and the “PPARγ-PPRE binding (densitometry), in words” value (PPARγ-PPRE binding; listed as Rosiglitazone) is reported as “increased DNA binding in both the ischemic and the non-ischemic hemispheres”. The “increase in LPL mRNA levels within the ischemic hemisphere” value (LPL mRNA) was 254% and the “physiologic parameters (temperature, arterial blood gases, blood pressure, cerebral blood flow) versus vehicle” value [1] was “no differences in physiologic parameters”.

For `CCCCC[C@H](O)/C=C/[C@H]1C(=O)C=C[C@@H]1C/C=C\CCCC(=O)O` [prostaglandin J2], the “benefit in hemorrhagic stroke” value (hemorrhagic stroke) is given as “beneficial in hemorrhagic stroke”.

In the case of Nitrolinoleic acid, the Ki (PPARγ) is given as > 1000 nM.

In the case of `O=C(Nc1ccncc1)c1cc([N+](=O)[O-])ccc1Cl` [T0070907], the mean absolute infarction volume ([2]; T0070907 24 h before and at time of MCAO) is reported as 176 mm³ and the animals that died ([2]; panel B) is reported as “one animal”.

For `CC(C)Cc1ccc(C(C)C(=O)O)cc1` (centres unmarked) [ibuprofen], the “cell death in rat cerebellum” value (rat cerebellum) is given as “reduces cell death”.

In the case of `CCCCC/C=C/C=C1/C(=O)C=C[C@@H]1C/C=C\CCCC(=O)O` [15-deoxy-D12,14-prostaglandin J2], the “cell death in rat cerebellum” value (rat cerebellum) is listed as “reduces cell death” and the “concentrations at which it binds PPARγ” value (PPARγ) is listed as 2 to 5 µM.

In the case of `CCCCCCCCCCCCCCCCOC[C@H](COP(=O)([O-])OCC[N+](C)(C)C)OC(=O)CCCCCCCC(=O)O` [hexadecyl azelaoyl phosphatidyicholine], the Kd (PPARγ) is given as ~40 nM.

For `Cc1c(C)c2c(c(C)c1O)CCC(C)(COc1ccc(CC3SC(=O)NC3=O)cc1)O2` (single isomer, unassigned; (+)) [troglitazone, (+)-5[[4-[(3,4-dihydro-6-hydroxy-2,5,7,8-tetramethyl-2H-1-benzopyran-2-yl)methoxy]phenyl]methyl]-2,4thiazolidinedione], the “cell death in rat cerebellum” value (rat cerebellum) is listed as “reduces cell death”, the “neuroprotection in rodent models of cerebral ischemia” value [3] is listed as “effective neuroprotective agents” and the “cell death following glutamate exposure” value [4] is listed as “reduces cell death”. For the same compound, the low-potassium-induced apoptosis [4] was “suppresses low-potassium-induced apoptosis”.
